From ChEMBL document CHEMBL4346733, “Evaluation of amidoxime derivatives as prodrug candidates of potent bis-cationic antimalarials” (Bioorg Med Chem Lett, 2019)
The source made the active and inactive calls. The rule behind the calls is not given here.

Legend:
[1] = test system: Plasmodium vinckei petteri; assay: Antimalarial activity against Plasmodium vinckei petteri 279BY infected in Swiss mouse assessed as reduction in parasitemia administered once daily via oral gavage starting from day 1 to day 4 post infection measured on day 5 Giemsa staining based flow cytometric analysis; format: functional
[2] = test system: Plasmodium vinckei petteri; assay: Antimalarial activity against Plasmodium vinckei petteri 279BY infected in Swiss mouse assessed as reduction in parasitemia administered once daily via intraperitoneal route starting from day 1 to day 4 post infection measured on day 5 Giemsa staining based flow cytometric analysis; format: functional; conditions: ip
[3] = Drug metabolism in human liver microsomes assessed as monoamidine-1 formation by measuring retention time of metabolite at 0.5 mM after 2 hrs by HPLC-UV analysis; format: ADME, Microsome; conditions: 500 µM
[4] = Retention time of compound at 0.05 mg/ml by HPLC analysis; format: physicochemical
[5] = Retention time of compound in human liver microsomes at 0.5 mM after 2 hrs HPLC-UV analysis; format: ADME, Microsome; conditions: 500 µM
[6] = Stability of compound in human plasma at 1000 ug/ml up to 120 mins by HPLC-UV analysis; format: ADME, cell-free; conditions: 2 h
[7] = Drug metabolism in human liver microsomes assessed as 1-(4-N-isopropylamidinophenoxy)-8-N-isopropylamidinooctane dihydrochloride formation by measuring disappearance of parent compound at 0.5 mM after 2 hrs by HPLC-UV analysis; format: ADME, Microsome; conditions: 500 µM
[8] = Stability of compound in human blood at 1000 ug/ml up to 120 mins by HPLC-UV analysis; format: ADME, tissue-based; conditions: 2 h
[9] = Drug metabolism in human liver microsomes assessed as disappearance of parent compound at 0.5 mM after 2 hrs by HPLC-UV analysis; format: ADME, Microsome; conditions: read-out: Drug metabolism
[10] = Drug metabolism in human liver microsomes assessed as 1-(4-N-isopropylamidinophenoxy)-8-N-isopropylamidinooctane dihydrochloride formation by measuring retention time of metabolite at 0.5 mM after 2 hrs by HPLC-UV analysis; format: ADME, Microsome; conditions: 500 µM
[11] = test system: Plasmodium falciparum; assay: Antimalarial activity against chloroquine-sensitive Plasmodium falciparum Nigerian after 48 hrs by [3H]-hypoxanthine incorporation assay; format: functional, organism-based
[12] = Drug metabolism in human liver microsomes assessed as 1-(4-N-pyrrolidinylamidinophenoxy)-8-N-pyrrolidinylamidinooctane dihydrochloride formation by measuring retention time of metabolite at 0.5 mM after 2 hrs by LC-MS analysis; format: ADME, Microsome; conditions: 500 µM
[13] = test system: Plasmodium falciparum; assay: Antimalarial activity against chloroquine-sensitive Plasmodium falciparum Nigerian infected in human blood after 48 hrs by [3H]-hypoxanthine incorporation assay; format: functional, organism-based
[14] = Drug metabolism in human liver microsomes assessed as 1-(4-Amidinophenoxy)-8-amidinooctane dihydrochloride formation by measuring retention time of metabolite at 0.5 mM after 2 hrs by HPLC-UV analysis; format: ADME, Microsome; conditions: 500 µM
[15] = test system: Plasmodium vinckei petteri; assay: (§1) Antimalarial activity against Plasmodium vinckei petteri 279BY infected in Swiss mouse assessed as reduction in parasitemia at 20 mg/kg, ip once daily for 4 consecutive days starting from day 1 to day 4 post infection and measured on day 5 Giemsa staining based flow cytometric analysis; format: functional, organism-based
[16] = test system: Plasmodium vinckei petteri; assay: as §1, with “dosed intraperitoneally” for “20 mg/kg, ip”, “28 by” for “5”; format: functional; parameters: scale not given: the % may be the effect or the level left
[17] = test system: Plasmodium vinckei petteri; assay: Selectivity index, ratio of ED50 for antimalarial activity against Plasmodium vinckei petteri 279BY infected in Swiss mouse administered via intraperitoneal route to ED50 for antimalarial activity against Plasmodium vinckei petteri 279BY infected in Swiss mouse administered via oral route; format: functional

Row | SMILES | ED50 [1] [mg/kg] | ED50 [2] [mg/kg] | Retention_time [4] [min] | IC50 [13] [nM] | other results
1 | O/N=C(\NCCCCCCCCCCCCN/C(=N\O)c1ccccc1)c1ccccc1 | > 90 | > 20 |  |  | 
2 | Br.Br.CC(C)N/C(=N\O)c1ccc(OCCCCCCCC/C(=N\O)NC(C)C)cc1 | > 180 | > 20 | 13.1 |  | Retention_time [3]: 12.1 min; Retention_time [5]: 13.3 min; Stability [6]: Stable; Drug metabolism [7]: 90%; Stability [8]: Stable; metabolised at 2 h, 500 µM [9]: 6%; Retention_time [10]: 10 min
3 | Cc1c(CCO)sc[n+]1CCCCCCCCCCCCC(=N)N |  |  |  |  | IC50 [11]: 2.2 nM
4 | COc1cccc(/C(=N/O)NCCCCCCCCCCCCN/C(=N\O)c2cccc(OC)c2)c1 | > 90 | > 20 |  |  | 
5 | Br.Br.O/N=C(/c1ccc(OCCCCCCCC/C(=N\O)N2CCCC2)cc1)N1CCCC1 | > 100 | 10 | 12.6 |  | Retention_time [5]: 12.3 min; Stability [6]: Stable; Stability [8]: Stable; metabolised at 2 h, 500 µM [9]: 14%; Retention_time [12]: 11.8 min
6 | Br.Br.N/C(=N\O)c1ccc(OCCCCCCCC/C(N)=N\O)cc1 | > 180 | > 10 | 11.5 | 2000 | Retention_time [3]: 16.5 min; Retention_time [5]: 15.6 min; Stability [6]: Stable; Retention_time [14]: 17.3 min; Stability [8]: Stable; metabolised at 2 h, 500 µM [9]: 7%
7 | CO/N=C(\NCCCCCCCCCCCCN/C(=N\OC)c1ccccc1)c1ccccc1 | > 90 | > 20 |  |  | 
8 | CC(C)NC(=N)CCCCCCCCOc1ccc(C(=N)NC(C)C)cc1.Cl.Cl | 110 | 2.8 | 10.1 | 9.5 | 
9 | CO/N=C(\NCCCCCCCCCCCCN/C(=N\OC)c1cccc(OC)c1)c1cccc(OC)c1 | > 90 | > 20 |  |  | 
10 | CCN(CC)CCCC(C)Nc1ccnc2cc(Cl)ccc12 (centres undefined) [CHLOROQUINE] | 3.4 | 1.1 |  |  | 
11 | N/C(=N\O)c1ccc(OCCCCCOc2ccc(/C(N)=N/O)cc2)cc1 [PENTAMIDINE DAO] |  |  | 22.3 |  | Retention_time [5]: 29 min; Stability [6]: Stable; Stability [8]: Stable; metabolised at 2 h, 500 µM [9]: 3%
12 | COCCc1sc[n+](CCCCCCCCCCCOc2ccc(/C(N)=N/O)cc2)c1C.[Br-] | > 90 | 8.8 |  | 530 | 
13 | Cl.Cl.N=C(N)CCCCCCCCCCCOc1ccc(C(=N)N)cc1 |  | 2.2 |  | 195 | 
14 | Cl.Cl.N=C(CCCCCCCCOc1ccc(C(=N)N2CCCC2)cc1)N1CCCC1 | 51 | 1.4 | 11.8 | 16 | 
15 | COc1ccc(/C(=N/O)NCCCCCCCCCCCCN/C(=N\O)c2ccc(OC)c(OC)c2)cc1OC | > 90 | 9.1 |  |  | 
16 | C[C@H]1[C@H](OC(=O)CCC(=O)O)O[C@@H]2O[C@@]3(C)CC[C@H]4[C@H](C)CC[C@@H]1[C@@]24OO3 [ARTESUNATE] |  | 1.2 |  |  | 
17 | Cc1c(CCO)sc[n+]1CCCCCCCCOc1ccc(/C(N)=N/O)cc1.[Br-] | 85 | > 20 |  | 360 | Activity [15]: inactive; Activity [16]: 100%; Ratio ED50 [17]: >0.23
18 | N=C(N)c1ccc(OCCCCCOc2ccc(C(=N)N)cc2)cc1 [PENTAMIDINE] |  |  | 25.4 |  | Retention_time [5]: 25.1 min; metabolised at 2 h, 500 µM [9]: 82%
19 | COc1ccc(/C(=N/O)NCCCCCCCCCCCCN/C(=N\O)c2ccc(OC)cc2)cc1 | > 90 | > 20 |  | 24000 | 
20 | Cc1c(CCO)sc[n+]1CCCCCCCCCCCC/C(N)=N/O.[Br-] | > 180 | 20 |  | 240 | 
21 | CO/N=C(\NCCCCCCCCCCCCN/C(=N\OC)c1ccc(OC)c(OC)c1)c1ccc(OC)c(OC)c1 | > 90 | > 20 |  |  | 
22 | Cc1c(CCO)sc[n+]1CCCCCCCCCCCOc1ccc(/C(N)=N/O)cc1.[Br-] | > 90 | > 20 |  | 315 | 
23 | Cl.Cl.N=C(N)CCCCCCCCOc1ccc(C(=N)N)cc1 | > 90 | 9 | 12.9 | 51.5 | 
